{"source": "patent US20040152903A1", "about": "“6-chloro-3-pyridylmethylpropylamine derivatives, preparation process thereof and bactericides” (priority 2004, published 2004)", "key": {"cucumber powdery mildew": {"system": "cucumber powdery mildew", "experiment": "Test of control effect on cucumber powdery mildew", "assay_type": "in vivo", "settings": "wettable powder 100 mg/l, 100 liters/10 a, cucumber (Sagamihanpakufushinari), examined 9th to 14th day after inoculation", "procedure": "(Test of Control Effect on Cucumber Powdery Mildew) The wettable powders formulated by using each of the compounds I-1 to 27 according to the present invention and the comparative compounds (a) to (d), (m-1) and (m-3) were each diluted and suspended with water to a predetermined concentration (100 mg/l), the suspension was sprinkled over the first to the second leaf period cucumbers (variety: “[…]”) cultivated by using a square plastic pot (size: 6.4 cm×6.4 cm) in a rate of 100 liters/10 a (ares). After the sprinkled leaves were air-dried, the spores were inoculated over the leaves by sprinkling the same with a brush from an infected leaf, a disease was contracted in a glass house (temperature: 20 to 24° C., relative humidity: 20 to 70 RH). On the 9th to 14th day after the inoculation, the infection degree was examined according to the following scale and the control value of each compound was calculated by the following calculation equation 2: (Examination Scale) [table]"}, "Botrytis cinerea": {"system": "Botrytis cinerea", "experiment": "Antifungal activity test (PDA plate, hypha extension inhibition)", "assay_type": "cell-based", "settings": "1.6 ppm in PDA culture medium", "procedure": "(Antifungal Activity Test against Various Pathogenic Fungi) For each of the compounds I-1 to 27 of the present invention and the comparative compounds (a) to (d), (m-1) and (m-3), 20 mg was weighed and dissolved in 2 ml of dimethylsulfoxide, and a double dilution row in 10 steps was prepared by further using dimethylsulfoxide. A 0.6 ml portion of these solutions was each added to 60 ml of a PDA culture medium (potato-dextrose-agar culture medium) at about 60° C., they were well mixed in a 100 ml Erlenmeyer flask, the solution was poured into a schale and was solidified, the plate culture media containing the compounds according to the present invention with final concentrations of 100, 50.0, 25.0, 12.5, 6.3, 3.2, 1.6, 0.8, 0.4 and 0.2 mg/l were prepared. On the other hand, the specimen bacteria cultured on the plate culture media beforehand was punched by a 4 mm diameter cork borer, and was inoculated on the plate culture media containing the aforementioned chemicals. After the inoculation, the bacteria were cultured at the optimum growth temperature of each bacterium for 1 to 7 days (for this optimum growth temperature, LIST OF CULTURES 1996 Microorganisms 10th edition published by Fermentation Research Institute (Foundation) can be referred to.), and the growth of the bacteria was measured by the diameter of a colony. […] R=100(dc−dt)/dc (Equation 3) [wherein each symbol is shown as follows: R=Hypha extension inhibition rate (%), dc=Diameter of colony on no-treated plate, dt=Diameter of colony on chemical-treated plate.] The results obtained above was evaluated in 5 steps in accordance with the following examination scale. <Growth Inhibition> 5: Hypha extension inhibition rate of 90% or more 4: Hypha extension inhibition rate of from 70% to less than 90% 3: […] 2: […] In addition, the abbreviations in Table 10 are as follows: B.c: Botrytis cinerea"}, "Rhynchosporium secalis": {"system": "Rhynchosporium secalis", "experiment": "Antifungal activity test (PDA plate, hypha extension inhibition)", "assay_type": "cell-based", "settings": "100 ppm in PDA culture medium", "procedure": "(Antifungal Activity Test against Various Pathogenic Fungi) For each of the compounds I-1 to 27 of the present invention and the comparative compounds (a) to (d), (m-1) and (m-3), 20 mg was weighed and dissolved in 2 ml of dimethylsulfoxide, and a double dilution row in 10 steps was prepared by further using dimethylsulfoxide. A 0.6 ml portion of these solutions was each added to 60 ml of a PDA culture medium (potato-dextrose-agar culture medium) at about 60° C., they were well mixed in a 100 ml Erlenmeyer flask, the solution was poured into a schale and was solidified, the plate culture media containing the compounds according to the present invention with final concentrations of 100, 50.0, 25.0, 12.5, 6.3, 3.2, 1.6, 0.8, 0.4 and 0.2 mg/l were prepared. On the other hand, the specimen bacteria cultured on the plate culture media beforehand was punched by a 4 mm diameter cork borer, and was inoculated on the plate culture media containing the aforementioned chemicals. After the inoculation, the bacteria were cultured at the optimum growth temperature of each bacterium for 1 to 7 days (for this optimum growth temperature, LIST OF CULTURES 1996 Microorganisms 10th edition published by Fermentation Research Institute (Foundation) can be referred to.), and the growth of the bacteria was measured by the diameter of a colony. […]"}, "wheat powdery mildew": {"system": "wheat powdery mildew", "experiment": "Permeable mobility fungicidal effect test in leaf section of wheat powdery mildew", "assay_type": "in vivo", "settings": "length of non-contracted area relative to compound (m-2); 200 mg/l, 0.5 μl applied to wheat leaf (Abukumawase)", "procedure": "(Permeable Mobility Fungicidal Effect Test in Leaf Section of Wheat Powdery Mildew) In the test example 4, permeable mobility fungicidal effect test was performed on the leaf section of wheat powdery mildew with regard to the compounds I-1 to 27 according to the present invention and the comparative compounds (a) to (d), and (m-1) to (m-3) with the method described later. <Test Method> The compound in the form of a wettable powder obtained by Formulation 2 or the like was diluted and suspended with water to a predetermined concentration (200 mg/l), and 0.5 μl of the suspension was applied to a 2 to 3 cm leaf portion from the root of the three leaves of the 4th to 4.5th leaf period wheat (variety: Abukumawase) cultured by using a square plastic pot (size: 6.4 cm×6.4 cm). After these wheat leaves were subject to still standing in a glass house (temperature: 20 to 24° C., relative humidity: 20 to 70 RH) for one day, the spores of wheat powdery mildew were inoculated over the leaves by sprinkling the same with a brush from an infected leaf, a disease was contracted in the same glass house. The length of a non-contracted area generated from the applied portion to the direction of the leaf top was measured, and a relative mobility to the compound (m-2) was calculated with the following calculation […] by using the comparative compound (m-2) as a standard compound. Relative mobility=(Length of non-contracted area in each chemical section (cm)/Length of non-contracted area of compound (m-2) (cm)) (Equation 4)"}}}
{"smiles": "CC(Cc1ccc2c(c1)OC(F)(F)O2)CN(C)Cc1ccc(Cl)nc1", "note": "(centres unmarked) [Compound I-24]", "values": [{"measurement": "Control Value", "setting": "cucumber powdery mildew", "value": 100}, {"measurement": "Growth Inhibition B.c (1.6)", "setting": "Botrytis cinerea", "value": "4 (Hypha extension inhibition rate of from 70% to less than 90%)"}, {"measurement": "Growth Inhibition R.s (100)", "setting": "Rhynchosporium secalis", "value": "5 (Hypha extension inhibition rate of 90% or more)"}, {"measurement": "Relative Mobility", "setting": "wheat powdery mildew", "value": 6}]}
{"smiles": "CC(Cc1ccc(C(F)(F)F)c(F)c1F)CN(C)Cc1ccc(Cl)nc1", "note": "(centres unmarked) [Compound I-10]", "values": [{"measurement": "Control Value", "setting": "cucumber powdery mildew", "value": 100}, {"measurement": "Growth Inhibition B.c (1.6)", "setting": "Botrytis cinerea", "value": "5 (Hypha extension inhibition rate of 90% or more)"}, {"measurement": "Growth Inhibition R.s (100)", "setting": "Rhynchosporium secalis", "value": "4 (Hypha extension inhibition rate of from 70% to less than 90%)"}, {"measurement": "Relative Mobility", "setting": "wheat powdery mildew", "value": 3}]}
